Assay results from patent US20190231705A1, “HIGH DRUG LOAD POLYMERIC NANOPARTICLE FORMULATIONS AND METHODS OF MAKING AND USING SAME” (Merck Sharp & Dohme Corp., priority 2018, published 2019).

Assay: Solution content after 80K centrifugation
Type: physicochemical
Settings: grazoprevir/HPMCAS-L nanoparticle suspension after 80k centrifugation

SMILES: C=C[C@@H]1C[C@]1(NC(=O)[C@@H]1C[C@@H]2CN1C(=O)[C@H](C(C)(C)C)NC(=O)O[C@@H]1C[C@H]1CCCCCc1nc3ccc(OC)cc3nc1O2)C(=O)NS(=O)(=O)C1CC1 [grazoprevir, (1aR,5S,8S, 10R,22aR)-N-[(1R,2S)-1-[(cyclopropylsulfonamido)-carbonyl]-2-ethenylcyclopropyl]-14-methoxy-5-(2-methylpropan-2-yl)-3,6-dioxo-1,1a,3,4,5,6,9,10,18,-19,20,21,22,22a-tetradecahydro-8H-7,10-methanocyclopropa[18,19][1,10,3,6]dioxadiaza-cyclononadecino[11,12-b]quinoxaline-8-carboxamide]
- % Grazoprevir in solution: 4.2%
